ChEMBL document CHEMBL5154740, “Novel Aurora A and Protein Kinase C (α, β1, β2, and θ) Multitarget Inhibitors: Impact of Selenium Atoms on the Potency and Selectivity” (J Med Chem, 2022)
pIC50: −log10 of the molar value.

What was measured:
[1] = target: Receptor tyrosine-protein kinase erbB-2 (Homo sapiens) (UniProt P04626); assay: Inhibition of ERBB2 (unknown origin) at 50 nM by Z'LYTE screening method relative to control
[2] = target: Ribosomal protein S6 kinase beta-1 (Homo sapiens) (UniProt P23443); assay: Inhibition of p70S6K (unknown origin) at 50 nM by Z'LYTE screening method relative to control
MDA-MB-231 = assay: Cytotoxicity against human MDA-MB-231/M cells assessed as reduction in cell viability incubated for 96 hrs by MTT assay; format: functional, cell-based; conditions: MDA-MB-231, 96 h
[3] = target: T1, Protein kinase C epsilon type (Homo sapiens) (UniProt Q02156); assay: Inhibition of PKCepsilon (unknown origin) at 50 nM by Z'LYTE screening method relative to control
T1 sequence (whole entry): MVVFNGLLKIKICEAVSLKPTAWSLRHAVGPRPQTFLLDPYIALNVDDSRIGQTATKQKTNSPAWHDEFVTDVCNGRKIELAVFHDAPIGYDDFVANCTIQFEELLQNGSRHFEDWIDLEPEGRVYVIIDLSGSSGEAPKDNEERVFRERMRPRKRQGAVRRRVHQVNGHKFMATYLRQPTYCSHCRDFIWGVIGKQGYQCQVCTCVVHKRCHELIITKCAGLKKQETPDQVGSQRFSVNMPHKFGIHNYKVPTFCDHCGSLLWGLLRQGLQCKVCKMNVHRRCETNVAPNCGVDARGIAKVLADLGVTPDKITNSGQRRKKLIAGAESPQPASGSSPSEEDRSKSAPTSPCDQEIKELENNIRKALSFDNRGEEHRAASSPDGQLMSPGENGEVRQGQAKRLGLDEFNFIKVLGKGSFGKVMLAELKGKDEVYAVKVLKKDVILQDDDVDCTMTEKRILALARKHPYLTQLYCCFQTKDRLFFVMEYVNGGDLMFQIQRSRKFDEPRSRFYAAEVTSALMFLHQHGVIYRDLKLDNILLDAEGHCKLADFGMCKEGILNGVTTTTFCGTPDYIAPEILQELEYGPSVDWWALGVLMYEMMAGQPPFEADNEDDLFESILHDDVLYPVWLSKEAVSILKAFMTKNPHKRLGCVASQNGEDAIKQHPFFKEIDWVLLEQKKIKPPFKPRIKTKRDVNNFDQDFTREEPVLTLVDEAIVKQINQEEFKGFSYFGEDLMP

[4] = target: Protein kinase C alpha type (Homo sapiens) (UniProt P17252); assay: Inhibition of PKCalpha (unknown origin) at 50 nM by Z'LYTE screening method relative to control
[5] = target: Protein kinase C delta type (Homo sapiens) (UniProt Q05655); assay: Inhibition of PKCdelta (unknown origin) at 50 nM by Z'LYTE screening method relative to control
[6] = target: Hepatocyte growth factor receptor (Homo sapiens) (UniProt P08581); assay: Inhibition of cMet (unknown origin) at 50 nM by Z'LYTE screening method relative to control
Hepatocyte growth factor receptor (Homo sapiens), sequence (P08581 whole entry): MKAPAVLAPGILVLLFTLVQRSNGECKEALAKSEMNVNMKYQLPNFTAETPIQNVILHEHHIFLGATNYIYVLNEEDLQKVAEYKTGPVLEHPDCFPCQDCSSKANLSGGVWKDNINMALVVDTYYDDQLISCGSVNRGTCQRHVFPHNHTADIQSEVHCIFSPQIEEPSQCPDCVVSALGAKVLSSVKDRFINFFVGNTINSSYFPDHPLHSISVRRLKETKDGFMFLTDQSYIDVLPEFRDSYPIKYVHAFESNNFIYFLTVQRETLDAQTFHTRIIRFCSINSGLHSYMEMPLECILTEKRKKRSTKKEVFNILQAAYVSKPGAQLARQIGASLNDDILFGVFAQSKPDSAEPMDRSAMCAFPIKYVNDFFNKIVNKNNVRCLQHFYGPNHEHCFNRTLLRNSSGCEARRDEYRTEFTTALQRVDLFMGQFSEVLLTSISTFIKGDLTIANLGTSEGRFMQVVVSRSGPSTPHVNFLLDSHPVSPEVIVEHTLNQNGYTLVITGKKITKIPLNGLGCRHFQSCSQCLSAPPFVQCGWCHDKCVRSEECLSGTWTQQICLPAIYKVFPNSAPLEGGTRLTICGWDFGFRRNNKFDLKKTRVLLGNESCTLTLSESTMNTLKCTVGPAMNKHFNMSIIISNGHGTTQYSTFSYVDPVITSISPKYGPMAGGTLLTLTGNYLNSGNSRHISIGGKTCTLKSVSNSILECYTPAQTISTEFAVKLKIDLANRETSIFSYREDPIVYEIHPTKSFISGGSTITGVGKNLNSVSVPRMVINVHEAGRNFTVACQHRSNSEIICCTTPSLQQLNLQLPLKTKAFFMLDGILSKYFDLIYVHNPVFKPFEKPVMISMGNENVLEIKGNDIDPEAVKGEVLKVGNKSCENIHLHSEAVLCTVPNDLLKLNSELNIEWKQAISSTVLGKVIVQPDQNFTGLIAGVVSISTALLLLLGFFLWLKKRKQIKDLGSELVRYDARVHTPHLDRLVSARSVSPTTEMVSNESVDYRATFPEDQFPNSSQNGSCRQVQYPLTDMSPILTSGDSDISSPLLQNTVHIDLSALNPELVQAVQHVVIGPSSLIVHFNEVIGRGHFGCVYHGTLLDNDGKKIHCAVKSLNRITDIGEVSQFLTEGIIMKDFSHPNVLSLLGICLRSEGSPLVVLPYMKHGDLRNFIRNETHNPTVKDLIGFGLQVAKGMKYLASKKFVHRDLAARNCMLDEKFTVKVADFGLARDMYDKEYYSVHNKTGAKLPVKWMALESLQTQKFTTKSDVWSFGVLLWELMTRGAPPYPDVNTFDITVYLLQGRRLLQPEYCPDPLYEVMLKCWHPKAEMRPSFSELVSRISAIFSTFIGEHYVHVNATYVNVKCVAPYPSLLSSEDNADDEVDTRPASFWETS

[7] = target: Ribosomal protein S6 kinase alpha-1 (Homo sapiens) (UniProt Q15418); assay: Inhibition of RPS6KA1 (unknown origin) at 50 nM by Z'LYTE screening method relative to control
[8] = target: RAC-alpha serine/threonine-protein kinase (Homo sapiens) (UniProt P31749); assay: Inhibition of AKT1 (unknown origin) at 50 nM by Z'LYTE screening method relative to control
RAC-alpha serine/threonine-protein kinase (Homo sapiens), sequence (P31749 whole entry): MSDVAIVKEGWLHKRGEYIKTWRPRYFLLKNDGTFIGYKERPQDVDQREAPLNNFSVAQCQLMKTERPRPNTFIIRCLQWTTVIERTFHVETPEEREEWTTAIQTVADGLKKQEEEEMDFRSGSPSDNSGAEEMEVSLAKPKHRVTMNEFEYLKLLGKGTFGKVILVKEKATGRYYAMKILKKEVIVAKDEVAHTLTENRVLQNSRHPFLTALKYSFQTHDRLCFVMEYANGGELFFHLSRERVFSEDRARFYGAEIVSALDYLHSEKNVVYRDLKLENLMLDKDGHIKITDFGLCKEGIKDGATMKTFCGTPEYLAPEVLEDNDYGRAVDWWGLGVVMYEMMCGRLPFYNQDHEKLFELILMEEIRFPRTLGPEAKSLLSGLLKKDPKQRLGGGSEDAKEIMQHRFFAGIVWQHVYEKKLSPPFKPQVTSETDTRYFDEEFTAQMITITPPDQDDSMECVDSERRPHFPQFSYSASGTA

[9] = target: T2, Aurora kinase A (Homo sapiens) (UniProt O14965); assay: Inhibition of AURA (unknown origin) at 50 nM by Z'LYTE screening method relative to control
T2 sequence (whole entry): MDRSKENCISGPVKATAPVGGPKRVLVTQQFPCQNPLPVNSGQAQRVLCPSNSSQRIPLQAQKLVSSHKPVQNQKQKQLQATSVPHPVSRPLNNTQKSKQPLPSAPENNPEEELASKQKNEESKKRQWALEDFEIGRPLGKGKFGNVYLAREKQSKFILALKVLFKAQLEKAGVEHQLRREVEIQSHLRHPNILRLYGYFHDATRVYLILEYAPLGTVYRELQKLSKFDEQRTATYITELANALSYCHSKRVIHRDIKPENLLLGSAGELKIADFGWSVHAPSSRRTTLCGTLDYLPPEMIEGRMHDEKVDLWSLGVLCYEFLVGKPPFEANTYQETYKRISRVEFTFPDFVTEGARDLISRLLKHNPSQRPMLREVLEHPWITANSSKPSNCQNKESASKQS

[10] = target: Protein kinase C eta type (Homo sapiens, UniProt P24723); assay: Inhibition of PKCeta (unknown origin) at 50 nM by Z'LYTE screening method relative to control
Protein kinase C eta type, sequence (P24723 whole entry): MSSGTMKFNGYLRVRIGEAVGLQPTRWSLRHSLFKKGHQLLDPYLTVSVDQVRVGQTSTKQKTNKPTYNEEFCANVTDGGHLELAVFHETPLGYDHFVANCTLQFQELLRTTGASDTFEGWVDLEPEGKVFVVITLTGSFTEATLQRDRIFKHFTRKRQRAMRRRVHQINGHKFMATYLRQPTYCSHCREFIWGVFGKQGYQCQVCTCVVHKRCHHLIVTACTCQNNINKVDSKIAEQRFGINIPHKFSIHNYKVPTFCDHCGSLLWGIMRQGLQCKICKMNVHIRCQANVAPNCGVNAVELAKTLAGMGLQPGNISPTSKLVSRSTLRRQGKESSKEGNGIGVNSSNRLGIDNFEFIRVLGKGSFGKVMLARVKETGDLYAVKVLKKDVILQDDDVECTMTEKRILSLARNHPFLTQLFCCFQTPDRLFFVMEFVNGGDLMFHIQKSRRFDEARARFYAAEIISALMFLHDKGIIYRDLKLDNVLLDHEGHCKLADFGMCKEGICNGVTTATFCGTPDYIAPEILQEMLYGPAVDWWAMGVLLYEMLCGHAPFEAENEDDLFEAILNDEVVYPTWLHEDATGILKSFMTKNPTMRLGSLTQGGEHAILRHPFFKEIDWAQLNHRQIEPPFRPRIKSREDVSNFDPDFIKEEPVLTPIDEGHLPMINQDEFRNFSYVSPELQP

[11] = target: Mitogen-activated protein kinase 1 (Homo sapiens) (UniProt P28482); assay: Inhibition of MAPK1 (unknown origin) at 50 nM by Z'LYTE screening method relative to control
[12] = target: DNA-dependent protein kinase catalytic subunit (Homo sapiens) (UniProt P78527); assay: Inhibition of DNA-PK (unknown origin) at 50 nM by Z'LYTE screening method relative to control
[13] = target: Tyrosine-protein kinase SYK (Homo sapiens) (UniProt P43405); assay: Inhibition of SYK (unknown origin) at 50 nM by Z'LYTE screening method relative to control
[14] = target: Tyrosine-protein kinase ABL1 (Homo sapiens) (UniProt P00519); assay: Inhibition of ABL1 (unknown origin) at 50 nM by Z'LYTE screening method relative to control
Tyrosine-protein kinase ABL1 (Homo sapiens), sequence (P00519 whole entry): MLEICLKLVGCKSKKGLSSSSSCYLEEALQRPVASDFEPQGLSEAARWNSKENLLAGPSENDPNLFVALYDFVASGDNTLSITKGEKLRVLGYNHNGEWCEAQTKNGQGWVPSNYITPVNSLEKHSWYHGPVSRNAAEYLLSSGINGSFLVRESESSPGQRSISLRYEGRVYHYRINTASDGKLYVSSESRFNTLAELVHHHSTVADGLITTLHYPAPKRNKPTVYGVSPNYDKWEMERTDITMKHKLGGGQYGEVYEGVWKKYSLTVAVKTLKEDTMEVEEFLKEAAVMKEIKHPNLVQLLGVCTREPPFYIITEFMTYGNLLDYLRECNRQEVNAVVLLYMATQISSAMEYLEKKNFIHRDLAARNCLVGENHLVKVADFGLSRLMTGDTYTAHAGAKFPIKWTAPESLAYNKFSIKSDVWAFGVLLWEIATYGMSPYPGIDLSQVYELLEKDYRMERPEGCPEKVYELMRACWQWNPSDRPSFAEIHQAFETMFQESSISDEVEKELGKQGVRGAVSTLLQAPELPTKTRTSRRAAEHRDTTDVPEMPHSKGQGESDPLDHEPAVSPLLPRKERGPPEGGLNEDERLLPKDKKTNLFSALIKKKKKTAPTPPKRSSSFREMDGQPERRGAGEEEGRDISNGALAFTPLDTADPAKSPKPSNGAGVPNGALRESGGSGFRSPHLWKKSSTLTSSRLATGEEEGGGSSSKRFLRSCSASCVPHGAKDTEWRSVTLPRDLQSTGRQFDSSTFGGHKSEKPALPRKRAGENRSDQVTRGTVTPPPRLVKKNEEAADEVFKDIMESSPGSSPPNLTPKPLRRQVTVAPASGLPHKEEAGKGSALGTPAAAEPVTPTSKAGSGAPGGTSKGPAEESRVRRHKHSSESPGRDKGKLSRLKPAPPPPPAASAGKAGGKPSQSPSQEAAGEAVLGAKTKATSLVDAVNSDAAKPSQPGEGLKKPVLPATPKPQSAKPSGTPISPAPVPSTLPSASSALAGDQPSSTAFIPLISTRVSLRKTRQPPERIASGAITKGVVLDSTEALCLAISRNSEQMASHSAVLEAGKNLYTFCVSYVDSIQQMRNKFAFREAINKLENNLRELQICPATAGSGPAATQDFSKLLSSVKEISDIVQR

[15] = target: Fibroblast growth factor receptor 1 (Homo sapiens) (UniProt P11362); assay: Inhibition of FGFR1 (unknown origin) at 50 nM by Z'LYTE screening method relative to control
[16] = target: Proto-oncogene tyrosine-protein kinase Src (Homo sapiens) (UniProt P12931); assay: Inhibition of SRC (unknown origin) at 50 nM by Z'LYTE screening method relative to control
[17] = target: Aurora kinase B (Homo sapiens) (UniProt Q96GD4); assay: Inhibition of AURB (unknown origin) at 50 nM by Z'LYTE screening method relative to control
[18] = target: PI3-kinase p110-alpha/p85-alpha (Homo sapiens) (UniProt P27986+P42336); assay: Inhibition of p110alpha/p85alpha (unknown origin) at 50 nM by Z'LYTE screening method relative to control; format: protein-complex assay
Homo sapiens = species: Homo sapiens; assay: Inhibition of CDK1/Cyclin B (unknown origin) at 50 nM by Z'LYTE screening method relative to control

Receptor tyrosine-protein kinase erbB-2 (Homo sapiens), sequence (P04626 whole entry): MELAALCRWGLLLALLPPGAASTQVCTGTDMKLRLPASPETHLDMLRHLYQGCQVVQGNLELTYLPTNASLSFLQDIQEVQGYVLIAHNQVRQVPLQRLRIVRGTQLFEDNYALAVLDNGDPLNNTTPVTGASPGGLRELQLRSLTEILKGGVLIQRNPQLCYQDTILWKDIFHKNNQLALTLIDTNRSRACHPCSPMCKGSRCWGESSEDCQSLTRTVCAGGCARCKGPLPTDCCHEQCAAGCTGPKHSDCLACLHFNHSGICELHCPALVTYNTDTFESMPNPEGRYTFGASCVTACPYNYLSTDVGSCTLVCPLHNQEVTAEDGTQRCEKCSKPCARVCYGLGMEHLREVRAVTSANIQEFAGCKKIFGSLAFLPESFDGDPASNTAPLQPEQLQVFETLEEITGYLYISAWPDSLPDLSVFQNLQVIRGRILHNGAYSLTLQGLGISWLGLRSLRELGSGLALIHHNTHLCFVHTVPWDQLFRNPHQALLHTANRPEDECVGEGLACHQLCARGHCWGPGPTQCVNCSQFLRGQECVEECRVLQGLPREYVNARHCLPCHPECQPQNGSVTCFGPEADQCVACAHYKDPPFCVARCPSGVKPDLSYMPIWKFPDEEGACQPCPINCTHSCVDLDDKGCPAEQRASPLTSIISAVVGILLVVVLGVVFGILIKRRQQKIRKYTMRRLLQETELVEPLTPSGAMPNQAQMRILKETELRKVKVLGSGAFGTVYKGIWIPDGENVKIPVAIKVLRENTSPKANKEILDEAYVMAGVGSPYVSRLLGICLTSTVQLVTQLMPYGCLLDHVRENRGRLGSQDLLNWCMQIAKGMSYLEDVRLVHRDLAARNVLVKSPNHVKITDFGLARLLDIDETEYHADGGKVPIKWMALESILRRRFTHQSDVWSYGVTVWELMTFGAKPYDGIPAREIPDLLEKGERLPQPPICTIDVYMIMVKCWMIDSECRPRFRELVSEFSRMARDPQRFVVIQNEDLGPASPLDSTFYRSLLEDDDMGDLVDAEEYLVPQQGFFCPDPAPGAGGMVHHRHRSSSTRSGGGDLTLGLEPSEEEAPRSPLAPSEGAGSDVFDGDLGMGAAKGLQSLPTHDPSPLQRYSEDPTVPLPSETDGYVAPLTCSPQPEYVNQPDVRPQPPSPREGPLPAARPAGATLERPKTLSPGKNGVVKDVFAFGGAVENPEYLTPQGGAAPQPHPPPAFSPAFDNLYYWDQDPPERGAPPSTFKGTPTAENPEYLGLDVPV

Compound | inhibition [1] [%] | inhibition [2] [%] | pIC50 (MDA-MB-231) | inhibition [3] [%] | inhibition [4] [%] | inhibition [5] [%] | inhibition [6] [%] | inhibition [7] [%] | inhibition [8] [%] | inhibition [9] [%] | inhibition [10] [%] | inhibition [11] [%] | inhibition [12] [%] | inhibition [13] [%] | inhibition [14] [%] | inhibition [15] [%] | inhibition [16] [%] | inhibition [17] [%] | inhibition [18] [%] | inhibition (Homo sapiens) [%]
CCN(CC)CCCC(C)Nc1nc(-n2[se]c3ccccc3c2=O)nc2[nH]cnc12 (stereo not given) | 1 | 0 | 4.77 | 8 | 18 | 6 | 14 | 0 | 9 | 9 | 11 | 0 | 0 | 4 | 11 | 0 | 0 | 6 | 0 | 0
CCN(CC)CCCC(C)Nc1nc(N2Cc3ccccc3C2=O)nc2[nH]cnc12 (stereo not given) | 0 | 1 | 4.66 | 4 | 3 | 0 | 2 | 0 | 2 | 3 | 2 | 2 | 0 | 2 | 1 | 0 | 0 | 5 | 0 | 1
C[C@@H]1[C@H]2C[C@@H](C[C@H]1Nc1nc(-n3[se]c4ccccc4c3=O)nc3[nH]cnc13)C2(C)C | 0 | 2 | 4.32 | 2 | 10 | 0 | 1 | 0 | 0 | 3 | 1 | 1 | 0 | 1 | 1 | 0 | 0 | 6 | 0 | 1
O=c1c2ccccc2[se]n1-c1nc(N[C@H]2CCOC2)c2nc[nH]c2n1 | 0 | 6 | 5.64 | 0 | 91 | 0 | 0 | 5 | 1 | 71 | 3 | 2 | 0 | 2 | 8 | 0 | 3 | 0 | 0 | 1
O=C1c2ccccc2CN1c1nc(NC2CCCCC2)c2nc[nH]c2n1 | 0 | 1 | 4.44 | 4 | 14 | 0 | 0 | 2 | 2 | 4 | 0 | 2 | 0 | 3 | 0 | 0 | 5 | 4 | 0 | 0
O=c1c2ccccc2[se]n1-c1nc(NC2CCCCC2)c2nc[nH]c2n1 | 0 | 1 | 4.99 | 6 | 68 | 0 | 0 | 2 | 2 | 84 | 0 | 0 | 0 | 5 | 1 | 0 | 3 | 7 | 0 | 0
CCCNc1nc(-n2[se]c3ccccc3c2=O)nc2[nH]cnc12 | 0 | 0 | 4.63 | 6 | 17 | 0 | 1 | 0 | 2 | 4 | 0 | 1 | 0 | 2 | 0 | 0 | 2 | 2 | 0 | 1
O=C1c2ccccc2CN1c1nc(N[C@H]2CC[Se]C2)c2nc[nH]c2n1 | 1 | 2 | 4.58 | 2 | 3 | 0 | 0 | 0 | 1 | 9 | 3 | 0 | 0 | 1 | 0 | 0 | 0 | 9 | 0 | 0
O=c1c2ccccc2[se]n1-c1nc(N[C@H]2CC[Se]C2)c2nc[nH]c2n1 | 0 | 3 | 5.92 | 5 | 100 | 0 | 0 | 5 | 0 | 87 | 6 | 9 | 0 | 0 | 1 | 0 | 0 | 0 | 0 | 0
O=c1c2ccccc2[se]n1-c1nc(Nc2ccccc2)c2nc[nH]c2n1 | 0 | 0 | 4.49 | 0 | 18 | 0 | 0 | 0 | 2 | 6 | 0 | 1 | 0 | 0 | 0 | 0 | 1 | 1 | 0 | 0
